The test concerns Bovine cardiac myofibrils. The test can be described thus: In vitro model of dose-dependent myofibril ATPase modulation (AC1.4, pyruvate kinase/lactate dehydrogenase-coupled ATPase assay at pCa25). It counts as biochemical. As to conditions: concentration at which ATPase activity was 1.4-fold higher than the bottom of the dose curve, mean of a minimum of two independent tests. The method, boiled down:
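Bovine cardiac myofibrils, detergent-treated; 0.25-1.0 mg/ml. Buffer: K-PIPES 12 mM, MgCl2 2 mM, DTT 1 mM, BSA 0.1 mg/ml, pH 6.80, 22° C; Ca2+ set by EGTA/CaCl2. ATP 1 mM, NADH/PEP-coupled, A340. 4-parameter fit; n≥2.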
With `N#CC1CN(S(=O)(=O)N2CCC[C@H](C(=O)N3CCC[C@@H]3C(=O)N[C@H]3Cc4ccccc43)C2)C1` [Example 565, N-((7S)-bicyclo[4.2.0]octa-1,3,5-trien-7-yl)-1-(((3S)-1-((3-cyano-1-azetidinyl)sulfonyl)-3-piperidinyl)carbonyl)-D-prolinamide], the AC1.4 was found to be 3.077 µM.

In the case of `N#CC1CN(S(=O)(=O)c2cccc(C(=O)N3CCC[C@@H]3C(=O)NCc3ccc(Cl)c(Cl)c3)c2)C1` [Example 22, 1-((3-((3-cyano-1-azetidinyl)sulfonyl)phenyl)carbonyl)-N-(3,4-dichlorobenzyl)-D-prolinamide], the AC1.4 amounted to 0.02715 µM.

For `CS(=O)(=O)c1cccc(C(=O)N2[C@@H](C(=O)N[C@@H](c3ccc(C(F)(F)F)c(F)c3)C3COC3)C[C@H]3C[C@H]32)c1` [Example 193, (1R,3R,5R)-N-((R)-(3-fluoro-4-(trifluoromethyl)phenyl)(3-oxetanyl)methyl)-2-(3-(methylsulfonyl)benzoyl)-2-azabicyclo[3.1.0]hexane-3-carboxamide], the AC1.4 was determined as 0.3676 µM.

In turn, `CCC(NC(=O)[C@H]1CCCN1C(=O)[C@H]1CCCN(S(=O)(=O)N2CC(C)(O)C2)C1)c1ccc(C(F)(F)F)cc1` (stereo partly drawn) [Example 668, (2R)-1-((S)-1-((3-hydroxy-3-methylazetidin-1-yl)sulfonyl)piperidine-3-carbonyl)-N-(1-(4-(trifluoromethyl)phenyl)propyl)pyrrolidine-2-carboxamide] came in with an AC1.4 of 4.71 µM.

Compound `O=C(NCc1ccc(C(F)(F)F)cc1)[C@H]1CCCN1C(=O)[C@H]1CCCN(S(=O)(=O)N2CC(n3cncn3)C2)C1` [Example 679, 1-(((3S)-1-((3-(1H-1,2,4-triazol-1-yl)-1-azetidinyl)sulfonyl)-3-piperidinyl)carbonyl)-N-(4-(trifluoromethyl)benzyl)-D-prolinamide] showed an AC1.4 of 5.023 µM.

In the case of `C[C@H](C(=O)NCc1cccc(C(F)(F)F)c1)N(C)C(=O)c1cccc(S(=O)(=O)N2CC(C#N)C2)c1` [Example 455, 3-((3-cyano-1-azetidinyl)sulfonyl)-N-methyl-N-((1R)-1-methyl-2-oxo-2-((3-(trifluoromethyl)benzyl)amino)ethyl)benzamide], the AC1.4 amounted to 1.877 µM.

As to `CN(C)S(=O)(=O)c1cccc(C(=O)N2CCC[C@@H]2C(=O)N[C@@H](c2ccc(Cl)c(F)c2)C2CC2)c1` [Example 114, N-((R)-(4-chloro-3-fluorophenyl)(cyclopropyl)methyl)-1-(3-(dimethylsulfamoyl)benzoyl)-D-prolinamide], the AC1.4 was 0.1771 µM.

As to `CS(=O)(=O)c1cccc(C(=O)N2CCC[C@@H]2C(=O)N[C@@H](c2ccc(C(F)F)cc2F)C2CC2)c1` [Example 721, N-((R)-cyclopropyl(4-(difluoromethyl)-2-fluorophenyl)methyl)-1-(3-(methylsulfonyl)benzoyl)-D-prolinamide], the AC1.4 stood at 6.2885 µM.

Consider `O=C(N[C@@H](c1ccc(C(F)(F)F)cc1F)C1CC1)[C@H]1C[C@H]2C[C@H]2N1C(=O)c1ccnc(C(F)F)c1` [Example 605, (1R,3R,5R)-N-((R)-cyclopropyl(2-fluoro-4-(trifluoromethyl)phenyl)methyl)-2-((2-(difluoromethyl)-4-pyridinyl)carbonyl)-2-azabicyclo[3.1.0]hexane-3-carboxamide], for which the AC1.4 was determined as 3.685 µM.

`COc1ccc(F)cc1CNC(=O)[C@H]1CCCN1C(=O)[C@H]1CCCN(S(=O)(=O)N2CC(C#N)C2)C1` [Example 700, (((3S)-1-((3-cyano-1-azetidinyl)sulfonyl)-3-piperidinyl)carbonyl)-N-(5-fluoro-2-methoxybenzyl)-D-prolinamide] registered an AC1.4 of 5.588 µM.

Compound `CCS(=O)(=O)c1cccc(C(=O)N2[C@@H](C(=O)N[C@@H](c3ccc(C(F)(F)F)cc3F)C3CC3)C[C@H]3C[C@H]32)c1` [Example 246, (1R,3R,5R)-N-((R)-cyclopropyl(2-fluoro-4-(trifluoromethyl)phenyl)methyl)-2-(3-(ethylsulfonyl)benzoyl)-2-azabicyclo[3.1.0]hexane-3-carboxamide] had an AC1.4 of 0.582 µM.

With `Cc1ccc(CNC(=O)[C@H]2CCCN2C(=O)[C@H]2CCCN(S(=O)(=O)N3CC(C#N)C3)C2)c(F)c1` [Example 181, 1-(((3S)-1-((3-cyano-1-azetidinyl)sulfonyl)-3-piperidinyl)carbonyl)-N-(2-fluoro-4-methylbenzyl)-D-prolinamide], the AC1.4 came to 0.3278 µM.

`N#CC1CN(S(=O)(=O)N2CCC[C@H](C(=O)N3CCC[C@@H]3C(=O)N[C@H](CO)c3ccc(C(F)(F)F)cc3)C2)C1` [Example 88, 1-(((3S)-1-((3-cyano-1-azetidinyl)sulfonyl)-3-piperidinyl)carbonyl)-N-((1S)-2-hydroxy-1-(4-(trifluoromethyl)phenyl)ethyl)-D-prolinamide] gave an AC1.4 of 0.1344 µM.

The compound `CC[C@H](NC(=O)[C@H]1CCCN1C(=O)[C@H]1CCCN(S(=O)(=O)N2CC(C#N)C2)C1)c1ccc(C(F)(F)F)cc1F` [Example 293, 1-(((3S)-1-((3-cyano-1-azetidinyl)sulfonyl)-3-piperidinyl)carbonyl)-N-((1S)-1-(2-fluoro-4-(trifluoromethyl)phenyl)propyl)-D-prolinamide] yielded an AC1.4 of 0.7603 µM.

For the compound `N#CC1CN(S(=O)(=O)N2CCC[C@H](C(=O)N3CCC[C@@H]3C(=O)N[C@@H](c3cc(F)c(Cl)cc3F)C3CC3)C2)C1` [Example 39, N-((R)-(4-chloro-2,5-difluorophenyl)(cyclopropyl)methyl)-1-(((3S)-1-((3-cyano-1-azetidinyl)sulfonyl)-3-piperidinyl)carbonyl)-D-prolinamide], the AC1.4 is 0.0394 µM.

On to `Cc1ccc(F)cc1CNC(=O)[C@H]1CCCN1C(=O)[C@H]1CCCN(S(=O)(=O)N2CC(C#N)C2)C1` [Example 508, 1-(((3S)-1-((3-cyano-1-azetidinyl)sulfonyl)-3-piperidinyl)carbonyl)-N-(5-fluoro-2-methylbenzyl)-D-prolinamide], for which the AC1.4 is 2.3805 µM.

`CC(C)c1cccc(C(=O)N2CCC[C@@H]2C(=O)N[C@@H](c2ccc(C(F)(F)F)cc2F)C2CC2)c1` [Example 414, N-((R)-cyclopropyl(2-fluoro-4-(trifluoromethyl)phenyl)methyl)-1-(3-(2-propanyl)benzoyl)-D-prolinamide]: the AC1.4 amounted to 1.515 µM.

In the case of `CN(C)S(=O)(=O)N1CCC[C@H](C(=O)N2CCC[C@@H]2C(=O)NCc2ccc(C(F)(F)F)cc2)C1` [Example 744, 1-(((3S)-1-(dimethylsulfamoyl)-3-piperidinyl)carbonyl)-N-(4-(trifluoromethyl)benzyl)-D-prolinamide], the AC1.4 is 7.232 µM.

For `N#CC1CN(S(=O)(=O)N2CCC[C@H](C(=O)N3CCC[C@@H]3C(=O)NCc3ccc(F)c(F)c3)C2)C1` [Example 221, 1-(((3S)-1-((3-cyano-1-azetidinyl)sulfonyl)-3-piperidinyl)carbonyl)-N-(3,4-difluorobenzyl)-D-prolinamide], the AC1.4 turned out to be 0.4821 µM.

Compound `CS(=O)(=O)c1ccc(N2CC(C#N)C2)c(C(=O)N2CCC[C@@H]2C(=O)N[C@@H](c2ccc(C(F)(F)F)cc2F)C2CC2)c1` [Example 550, (R)-1-(2-(3-cyanoazetidin-1-yl)-5-(methylsulfonyl)benzoyl)-N—((R)-cyclopropyl(2-fluoro-4-(trifluoromethyl)phenyl)methyl)pyrrolidine-2-carboxamide] yielded an AC1.4 of 2.8425 µM.

Compound `C[C@@H]1CCN(S(=O)(=O)N2CC(C#N)C2)C[C@H]1C(=O)N1CCC[C@@H]1C(=O)NCc1ccc(C(F)(F)F)cc1` [Example 82, 1-(((3S,4R)-1-((3-cyano-1-azetidinyl)sulfonyl)-4-methyl-3-piperidinyl)carbonyl)-N-(4-(trifluoromethyl)benzyl)-D-prolinamide] came in with an AC1.4 of 0.1085 µM.

In turn, `N#CC1CN(S(=O)(=O)N2CCC[C@H](C(=O)N3CCC[C@@H]3C(=O)NC3CCOc4ccccc43)C2)C1` (stereo partly drawn) [Example 502, (2R)-N-(chroman-4-yl)-1-((S)-1-((3-cyanoazetidin-l-yl)sulfonyl)piperidine-3-carbonyl)pyrrolidine-2-carboxamide] showed an AC1.4 of 2.3515 µM.

The compound `CC[C@@H](NC(=O)[C@H]1CCCN1C(=O)c1cccc(S(C)(=O)=O)c1)c1ccc(C(F)(F)F)cc1F` [Example 630, N-((1R)-1-(2-fluoro-4-(trifluoromethyl)phenyl)propyl)-1-(3-(methylsulfonyl)benzoyl)-D-prolinamide] had an AC1.4 of 3.9185 µM.

`N#CC1CN(S(=O)(=O)N2CCC[C@H](C(=O)N3CCC[C@@H]3C(=O)N[C@H](CO)c3cccc(C(F)(F)F)c3)C2)C1` [Example 404, 1-(((3S)-1-((3-cyano-1-azetidinyl)sulfonyl)-3-piperidinyl)carbonyl)-N-((1S)-2-hydroxy-1-(3-(trifluoromethyl)phenyl)ethyl)-D-prolinamide] had an AC1.4 of 1.4525 µM.

Consider `N#CC1CN(S(=O)(=O)N2CCC(F)=C(C(=O)N3CCC[C@@H]3C(=O)NCc3ccc(C(F)(F)F)cc3)C2)C1` [Example 168, 1-((1-((3-cyano-1-azetidinyl)sulfonyl)-4-fluoro-l,2,5,6-tetrahydro-3-pyridinyl)carbonyl)-N-(4-(trifluoromethyl)benzyl)-D-prolinamide], for which the AC1.4 came to 0.2875 µM.

Turning to `CS(=O)(=O)c1cccc(C(=O)N2CCSCC2C(=O)N[C@@H](c2ccc(C(F)(F)F)cc2F)C2CC2)c1` (stereo partly drawn) [Example 552, N-((R)-cyclopropyl(2-fluoro-4-(trifluoromethyl)phenyl)methyl)-4-(3-(methylsulfonyl)benzoyl)thiomorpholine-3-carboxamide], the AC1.4 was determined as 2.854 µM.

`C[C@H](C(=O)N[C@H](C)c1ccc(C(F)(F)F)cc1)N(C)C(=O)[C@H]1CCCN(S(=O)(=O)N2CC(C#N)C2)C1` [Example 415, (3S)-1-((3-cyano-1-azetidinyl)sulfonyl)-N-methyl-N-((1R)-1-methyl-2-oxo-2-(((1R)-1-(4-(trifluoromethyl)phenyl)ethyl)amino)ethyl)-3-piperidinecarboxamide] returned an AC1.4 of 1.522 µM.

The record behind these values is US11780826B2 (Amgen Inc., priority 2017, dated 2023).
